Active and inactive are the calls of the source. How the calls were made is not given here.
Test system: rodent carcinogenicity bioassays, tumor incidence
Test: CCRIS carcinogenicity studies
Outline: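 Archive of carcinogenicity, mutagenicity, tumor promotion and tumor inhibition results drawn from journals, NCI reports and other sources, expert-reviewed; covers 1985-2011 and is no longer updated.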

c1ccncc1
carcinogen call (Species: MOUSE, Strain/Sex: B6C3F1/FEMALE, Route: ORAL, Dose: 0, 125, 250, 500 PPM IN DRINKING WATER FOR 105 WK (STUDY DURATION: 105 WK), Dose: 0, 125, 250, 500 PPM IN DRINKING WATER FOR 105 WK (STUDY DURATION: 105 WK), Tumor Site: Type of Lesion: LIVER: HEPATOCELLULAR ADENOMA, HEPATOCELLULAR CARCINOMA, OR HEPATOBLASTOMA): active; positive
carcinogen call (Species: MOUSE, Strain/Sex: B6C3F1/MALE, Route: ORAL, Dose: 0, 250, 500, 1000 PPM IN DRINKING WATER FOR 104 WK (STUDY DURATION: 104 WK), Dose: 0, 250, 500, 1000 PPM IN DRINKING WATER FOR 104 WK (STUDY DURATION: 104 WK), Tumor Site: Type of Lesion: LIVER: HEPATOCELLULAR ADENOMA, HEPATOCELLULAR CARCINOMA, OR HEPATOBLASTOMA): active; positive
carcinogen call (Species: RAT, Strain/Sex: F344/FEMALE, Route: ORAL, Dose: 0, 100, 200, 400 PPM IN DRINKING WATER FOR 105 WK (STUDY DURATION: 105 WK), Dose: 0, 100, 200, 400 PPM IN DRINKING WATER FOR 105 WK (STUDY DURATION: 105 WK), Tumor Site: Type of Lesion: MULTIPLE ORGANS: MONONUCLEAR CELL LEUKEMIA): equivocal
carcinogen call (Species: RAT, Strain/Sex: F344/MALE, Route: ORAL, Dose: 0, 100, 200, 400 PPM IN DRINKING WATER FOR 104 WK (STUDY DURATION: 104 WK), Dose: 0, 100, 200, 400 PPM IN DRINKING WATER FOR 104 WK (STUDY DURATION: 104 WK), Tumor Site: Type of Lesion: KIDNEY: RENAL TUBULE ADENOMA, RENAL TUBULE ADENOMA OR CARCINOMA): active; positive
carcinogen call (Species: RAT, Strain/Sex: WISTAR/MALE, Route: ORAL, Dose: 0, 100, 200, 400 PPM IN DRINKING WATER FOR 104 WK (STUDY DURATION: 104 WK), Dose: 0, 100, 200, 400 PPM IN DRINKING WATER FOR 104 WK (STUDY DURATION: 104 WK), Tumor Site: Type of Lesion: TESTIS: INTERSTITIAL CELL ADENOMA): equivocal

[Be]
carcinogen call (Species: RAT, Strain/Sex: WISTAR/FEMALE, Route: INTRATRACHEAL, Dose: 0, 0.5, 2.5 MG, SINGLE DOSE IN SALINE SUSPENSION, Tumor Site: Type of Lesion: LUNG): active; positive
carcinogen call (Species: RAT, Strain/Sex: WISTAR/FEMALE, Route: INTRATRACHEAL, Dose: 0.5, 2.5 MG/RAT IN SALINE SUSPENDED ONCE, Tumor Site: Type of Lesion: LUNG): active; positive

N[C@@H](CC(=O)O)C(=O)O
carcinogen call (Species: RAT, Strain/Sex: F344/FEMALE, Route: ORAL, Dose: 0, 2.5, 5% IN DRINKING WATER FOR 100 WK (STUDY DURATION: 100 WK), Dose: 0, 2.5, 5% IN DRINKING WATER FOR 100 WK (STUDY DURATION: 100 WK)): inactive; negative
carcinogen call (Species: RAT, Strain/Sex: F344/MALE, Route: ORAL, Dose: 0, 2.5, 5% IN DRINKING WATER FOR 100 WK (STUDY DURATION: 100 WK), Dose: 0, 2.5, 5% IN DRINKING WATER FOR 100 WK (STUDY DURATION: 100 WK)): inactive; negative

O.O=C([O-])c1ccccn1.O=C([O-])c1ccccn1.O=C([O-])c1ccccn1.[Cr+3]
carcinogen call (Species: Mouse, Strain/Sex: B6C3F1 /Female (50/Group), Route: Oral, Dose: 0, 2000, 10,000, 50,000 ppm (average daily doses of 0; 240; 1200; 6100 mg/kg) in diet for 105 wk, Dose: 0, 2000, 10,000, 50,000 ppm (average daily doses of 0; 240; 1200; 6100 mg/kg) in diet for 105 wk): inactive; negative
carcinogen call (Species: Mouse, Strain/Sex: B6C3F1/Female (50/Group), Route: Oral, Dose: 0, 2,000, 10,000, 50,000 ppm in diet for 105 wk (Study duration: 105 wk), Dose: 0, 2,000, 10,000, 50,000 ppm in diet for 105 wk (Study duration: 105 wk)): inactive; negative
carcinogen call (Species: Mouse, Strain/Sex: B6C3F1/Male (50/Group), Route: Oral, Dose: 0, 2000, 10,000, 50,000 ppm (average daily doses of 0; 250; 1200; 6565 mg/kg) in diet for 105 wk, Dose: 0, 2000, 10,000, 50,000 ppm (average daily doses of 0; 250; 1200; 6565 mg/kg) in diet for 105 wk): inactive; negative
carcinogen call (Species: Mouse, Strain/Sex: B6C3F1/Male (50/Group), Route: Oral, Dose: 0, 2,000, 10,000, 50,000 ppm in diet for 105 wk (Study duration: 105 wk), Dose: 0, 2,000, 10,000, 50,000 ppm in diet for 105 wk (Study duration: 105 wk)): inactive; negative
carcinogen call (Species: Rat, Strain/Sex: F344/N / Female (50/Group), Route: Oral, Dose: 0, 2000, 10,000, 50,000 ppm (average daily doses of 0; 100; 510; 2630 mg/kg) in diet for 105 wk, Dose: 0, 2000, 10,000, 50,000 ppm (average daily doses of 0; 100; 510; 2630 mg/kg) in diet for 105 wk): inactive; negative
carcinogen call (Species: Rat, Strain/Sex: F344/N / Female (50/Group), Route: Oral, Dose: 0, 2,000, 10,000, 50,000 ppm in diet for 105 wk (Study duration: 105 wk), Dose: 0, 2,000, 10,000, 50,000 ppm in diet for 105 wk (Study duration: 105 wk)): inactive; negative
carcinogen call (Species: Rat, Strain/Sex: F344/N / Male (50/Group), Route: Oral, Dose: 0, 2000, 10,000, 50,000 ppm (average daily doses of 0; 90; 460; 2400 mg/kg) in diet for 105 wk, Dose: 0, 2000, 10,000, 50,000 ppm (average daily doses of 0; 90; 460; 2400 mg/kg) in diet for 105 wk, Tumor Site: Type of Lesion: Preputial gland: adenoma (1/50, 1/50, 7/50, 4/50)): equivocal
carcinogen call (Species: Rat, Strain/Sex: F344/N / Male (50/Group), Route: Oral, Dose: 0, 2,000, 10,000, 50,000 ppm in diet for 105 wk (Study duration: 105 wk), Dose: 0, 2,000, 10,000, 50,000 ppm in diet for 105 wk (Study duration: 105 wk), Tumor Site: Type of Lesion: Preputial gland: adenoma (1, 1, 7, 4; P</=0.05 at 10,000 ppm only)): inactive; negative. authors describe as equivocal evidence of carcinogenicity.

CC1CN(N=O)CC(C)N1C(=O)c1ccccc1 (stereo unspecified)
carcinogen call (Species: RAT, Strain/Sex: F344/FEMALE, Route: ORAL, Dose: 0, 172 MG/L IN DRINKING WATER 5 D/WK FOR 50 WK, STUDY DURATION: 120-130 WK, Dose: 0, 172 MG/L IN DRINKING WATER 5 D/WK FOR 50 WK, STUDY DURATION: 120-130 WK, Tumor Site: Type of Lesion: FORESTOMACH: PAPILLOMA OR CARCINOMA): active; positive

O=P(O)(O)O
carcinogen call (Species: MOUSE, Strain/Sex: B6C3F1/FEMALE, Route: GAVAGE, Dose: 0, 500, 1000 MG/KG IN DEIONIZED WATER 5D/WK FOR 103 WK (STUDY DURATION: 105 WK), Dose: 0, 500, 1000 MG/KG IN DEIONIZED WATER 5D/WK FOR 103 WK (STUDY DURATION: 105 WK)): inactive; negative
carcinogen call (Species: MOUSE, Strain/Sex: B6C3F1/MALE, Route: GAVAGE, Dose: 0, 500, 1000 MG/KG IN DEIONIZED WATER 5D/WK FOR 103 WK (STUDY DURATION: 105 WK), Dose: 0, 500, 1000 MG/KG IN DEIONIZED WATER 5D/WK FOR 103 WK (STUDY DURATION: 105 WK)): inactive; negative

C=C(Cl)CSC(=S)N(CC)CC
carcinogen call (Species: MOUSE, Strain/Sex: B6C3F1/FEMALE, Route: ORAL, Dose: 0, 908, 1815 PPM TWA, IN DIET FOR 74 WK (STUDY DURATION: 90-91 WK), Dose: 0, 908, 1815 PPM TWA, IN DIET FOR 74 WK (STUDY DURATION: 90-91 WK), Tumor Site: Type of Lesion: MAMMARY GLAND: ADENOCARCINOMA OR SQUAMOUS METAPLASIA): active; positive
carcinogen call (Species: MOUSE, Strain/Sex: B6C3F1/MALE, Route: ORAL, Dose: 0, 949, 1897 PPM TWA, IN DIET FOR 74 WK (STUDY DURATION: 91 WK), Dose: 0, 949, 1897 PPM TWA, IN DIET FOR 74 WK (STUDY DURATION: 91 WK), Tumor Site: Type of Lesion: LUNG: ALVEOLAR/BRONCHIOLAR ADENOMA OR ALVEOLAR/BRONCHIOLAR CARCINOMA): active; positive
carcinogen call (Species: RAT, Strain/Sex: OSBORNE-MENDEL/FEMALE, Route: ORAL, Dose: 0, 250, 404 PPM TWA, IN DIET FOR 63-78 WK (STUDY DURATION: 104-111 WK), Dose: 0, 250, 404 PPM TWA, IN DIET FOR 63-78 WK (STUDY DURATION: 104-111 WK), Tumor Site: Type of Lesion: MAMMARY GLAND: ADENOCARCINOMA): active; positive
carcinogen call (Species: RAT, Strain/Sex: OSBORNE-MENDEL/MALE, Route: ORAL, Dose: 0, 250, 410 PPM TWA, IN DIET FOR 64-78 WK (STUDY DURATION: 103-111 WK), Dose: 0, 250, 410 PPM TWA, IN DIET FOR 64-78 WK (STUDY DURATION: 103-111 WK), Tumor Site: Type of Lesion: STOMACH: PAPILLOMA, SQUAMOUS CELL PAPILLOMA OR SQUAMOUS CELL CARCINOMA): active; positive

OC1c2nc3c(ccc4ccccc43)cc2C2OC2C1O (stereo unspecified)
carcinogen call (Species: MOUSE, Strain/Sex: SWISS/FEMALE, Route: INTRAPERITONEAL, Dose: 0, 1.05 UMOL GIVEN AS 150 NMOL IN 5 µL DMSO WITHIN 24 HR OF BIRTH, 300 NMOL IN 10 µL DMSO ON D 8 OF LIFE, AND 600 NMOL I): inactive; negative
carcinogen call (Species: MOUSE, Strain/Sex: SWISS/MALE, Route: INTRAPERITONEAL, Dose: 0, 1.05 UMOL GIVEN AS 150 NMOL IN 5 µL DMSO WITHIN 24 HR OF BIRTH, 300 NMOL IN 10 µL DMSO ON D 8 OF LIFE, AND 600 NMOL I): inactive; negative

Source: PubChem BioAssay AID1259411 (Chemical Carcinogenesis Research Information System (CCRIS), 2018)
